Laboratory results taken from publication PMC11124822, “Discovery and Anticancer Screening of Novel Oxindole-Based Derivative Bearing Pyridyl Group as Potent and Selective Dual FLT3/CDK2 Kinase Inhibitor” (Pharmaceuticals, 2024).

Experiments:
Test in all cases: NCI-60 antiproliferative screen (SRB)
U251 = assay type: cell-based, human; settings: Homo sapiens, U-251; 10 µM single dose, 48 h; U251 (CNS); read-out: Growth inhibition (%)
SN12C = assay type: cell-based, human; settings: Homo sapiens; 10 µM single dose, 48 h; SN12C (Renal); read-out: Growth inhibition (%)
HS 578T = assay type: cell-based, human; settings: Homo sapiens; 10 µM single dose, 48 h; HS 578T (Breast); read-out: Growth inhibition (%)
MDA-MB-231 = assay type: cell-based, human; settings: Homo sapiens; 10 µM single dose, 48 h; MDA-MB-231 (Breast); read-out: Growth inhibition (%)
PC-3 = assay type: cell-based, human; settings: Homo sapiens; 10 µM single dose, 48 h; PC-3 (Prostate); read-out: Growth inhibition (%)
OVCAR-5 = assay type: cell-based, human; settings: Homo sapiens; 10 µM single dose, 48 h; OVCAR-5 (Ovarian); read-out: Growth inhibition (%)
COLO 205 = assay type: cell-based, human; settings: Homo sapiens; 10 µM single dose, 48 h; COLO 205 (Colon); read-out: Growth inhibition (%)
SK-MEL-28 = assay type: cell-based, human; settings: Homo sapiens; 10 µM single dose, 48 h; SK-MEL-28 (Melanoma); read-out: Growth inhibition (%)
UO-31 = assay type: cell-based, human; settings: Homo sapiens; 10 µM single dose, 48 h; UO-31 (Renal); read-out: Growth inhibition (%)
NCI-H226 = assay type: cell-based, human; settings: Homo sapiens; 10 µM single dose, 48 h; NCI-H226 (NSCLC); read-out: Growth inhibition (%)
SF-295 = assay type: cell-based, human; settings: Homo sapiens; 10 µM single dose, 48 h; SF-295 (CNS); read-out: Growth inhibition (%)
HCC-2998 = assay type: cell-based, human; settings: Homo sapiens; 10 µM single dose, 48 h; HCC-2998 (Colon); read-out: Growth inhibition (%)
MDA-MB-468 = assay type: cell-based, human; settings: Homo sapiens; 10 µM single dose, 48 h; MDA-MB-468 (Breast); read-out: Growth inhibition (%)
IGROV1 = assay type: cell-based, human; settings: Homo sapiens, IGROV-1; 10 µM single dose, 48 h; IGROV1 (Ovarian); read-out: Growth inhibition (%)
K-562 = assay type: cell-based, human; settings: Homo sapiens, K562; 10 µM single dose, 48 h; K-562 (Leukemia); read-out: Growth inhibition (%)
HCT-116 = assay type: cell-based, human; settings: Homo sapiens; 10 µM single dose, 48 h; HCT-116 (Colon); read-out: Growth inhibition (%)
MALME-3M = assay type: cell-based, human; settings: Homo sapiens; 10 µM single dose, 48 h; MALME-3M (Melanoma); read-out: Growth inhibition (%)
HL-60(TB) = assay type: cell-based, human; settings: Homo sapiens; 10 µM single dose, 48 h; HL-60(TB) (Leukemia); read-out: Growth inhibition (%)
MCF7 = assay type: cell-based, human; settings: Homo sapiens; 10 µM single dose, 48 h; MCF7 (Breast); read-out: Growth inhibition (%)
SK-MEL-2 = assay type: cell-based, human; settings: Homo sapiens; 10 µM single dose, 48 h; SK-MEL-2 (Melanoma); read-out: Growth inhibition (%)
EKVX = assay type: cell-based, human; settings: Homo sapiens; 10 µM single dose, 48 h; EKVX (NSCLC); read-out: Growth inhibition (%)
T-47D = assay type: cell-based, human; settings: Homo sapiens, T47D; 10 µM single dose, 48 h; T-47D (Breast); read-out: Growth inhibition (%)
TK-10 = assay type: cell-based, human; settings: Homo sapiens; 10 µM single dose, 48 h; TK-10 (Renal); read-out: Growth inhibition (%)
SNB-75 = settings: Homo sapiens, SNB-75, 48 h, read-out: Growth inhibition (%)
786-0 = assay type: cell-based, human; settings: Homo sapiens; 10 µM single dose, 48 h; 786-0 (Renal); read-out: Growth inhibition (%)
CCRF-CEM = assay type: cell-based, human; settings: Homo sapiens; 10 µM single dose, 48 h; CCRF-CEM (Leukemia); read-out: Growth inhibition (%)
RXF 393 = assay type: cell-based, human; settings: Homo sapiens; 10 µM single dose, 48 h; RXF 393 (Renal); read-out: Growth inhibition (%)
RPMI-8226 = assay type: cell-based, human; settings: Homo sapiens; 10 µM single dose, 48 h; RPMI-8226 (Leukemia); read-out: Growth inhibition (%)
KM12 = assay type: cell-based, human; settings: Homo sapiens; 10 µM single dose, 48 h; KM12 (Colon); read-out: Growth inhibition (%)
MOLT-4 = assay type: cell-based; settings: Homo sapiens; 10 µM single dose, 48 h; MOLT-4 (Leukemia); read-out: Growth inhibition (%)

SMILES | inhibition at 10 µM (U251) | inhibition at 10 µM (SN12C) | inhibition at 10 µM (HS 578T) | inhibition at 10 µM (MDA-MB-231) | inhibition at 10 µM (PC-3) | inhibition at 10 µM (OVCAR-5) | inhibition at 10 µM (COLO 205) | inhibition at 10 µM (SK-MEL-28) | inhibition at 10 µM (UO-31) | inhibition at 10 µM (NCI-H226) | inhibition at 10 µM (SF-295) | inhibition at 10 µM (HCC-2998) | inhibition at 10 µM (MDA-MB-468) | inhibition at 10 µM (IGROV1) | inhibition at 10 µM (K-562) | inhibition at 10 µM (HCT-116) | inhibition at 10 µM (MALME-3M) | inhibition at 10 µM (HL-60(TB)) | inhibition at 10 µM (MCF7) | inhibition at 10 µM (SK-MEL-2) | further results
O=C1Nc2cc(Cl)ccc2C1=Cc1ccc(OCc2ccccc2)cc1 (mixture of isomers) [Compound 5d, (E/Z)-3-[4-(Benzyloxy)benzylidene]-6-chloroindolin-2-one] | -4.25% | 4.03% | 3.27% | -3.65% | 11.8% | -0.55% | -9.74% | -2.97% | 23.8% | 7.13% | -14.7% | -1.79% | 1.52% | 8.41% | 6.91% | 2.33% | -15.4% | -13.1% | 38.4% | -11.3% | inhibition at 10 µM (EKVX): -0.31%; inhibition at 10 µM (T-47D): 4.32%; inhibition at 10 µM (TK-10): -54%; inhibition at 10 µM (SNB-75): 26.7%; inhibition at 10 µM (786-0): -4.97%; inhibition at 10 µM (CCRF-CEM): -2.18%; inhibition at 10 µM (RXF 393): -14.2%; inhibition at 10 µM (RPMI-8226): -7.36%; inhibition at 10 µM (KM12): 4.92%; inhibition at 10 µM (MOLT-4): 0.86%
O=C1Nc2ccc(Cl)cc2C1=Cc1ccc(OCc2ccccc2)cc1 (mixture of isomers) [Compound 5c, (E/Z)-3-[4-(Benzyloxy)benzylidene]-5-chloroindolin-2-one] | -1.54% | 0.7% | -2.25% | -5.3% | 12.9% | -2.92% | -6.62% | -8.75% | 23.9% | 11.1% | -11.1% | -3.96% | -0.96% | -5.14% | -0.34% | 3.41% | -13% | -3.22% | 16% | -0.35% | inhibition at 10 µM (EKVX): 0.85%; inhibition at 10 µM (T-47D): 4.11%; inhibition at 10 µM (TK-10): -12.7%; inhibition at 10 µM (SNB-75): 13.1%; inhibition at 10 µM (786-0): -2.86%; inhibition at 10 µM (CCRF-CEM): 0.21%; inhibition at 10 µM (RXF 393): -5.38%; inhibition at 10 µM (RPMI-8226): -3.85%; inhibition at 10 µM (KM12): -1.02%; inhibition at 10 µM (MOLT-4): 3.28%
